Reference: PubChem BioAssay (NCI)
Several values for one entry are separate records, joined by “and”; a condition that tells them apart may be missing. Identical values can stand only once.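 Each compound was tested at five concentrations against cells in 96-well plates for 48 hours. GI50 marks 50% less growth. Definition used: TGI = concentration required for complete inhibition of growth.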

Key:
Assay in all cases: NCI-60 cell line screen, 48 h
[1] = system: NCI-H460 lung
[2] = system: UACC-62 melanoma
[3] = system: SF-539 CNS
[4] = system: DU-145 prostate
[5] = system: NCI-H226 lung
[6] = system: SF-268 CNS
[7] = system: SNB-19 CNS
[8] = system: MCF7 breast
[9] = system: HS 578T breast
[10] = system: TK-10 renal

Compound	GI50 [1]	TGI [1]	GI50 [2]	TGI [2]	GI50 [3]	TGI [3]	GI50 [4]	TGI [4]	GI50 [5]	TGI [5]	GI50 [6]	TGI [6]	GI50 [7]	TGI [7]	GI50 [8]	TGI [8]	GI50 [9]	TGI [9]	GI50 [10]	TGI [10]
Fc1ccc(-c2nn3c(COc4ccc(Cl)cc4Cl)nnc3s2)cc1Oc1ccccc1	25.4 µM	> 100 µM	14.3 µM	28.9 µM	18 µM	32.3 µM	19.2 µM	42.5 µM	21 µM	74 µM	29.8 µM	87.8 µM	13.3 µM	26.1 µM	67.1 µM	> 100 µM	16.4 µM	47.5 µM	12.2 µM	25.2 µM
O=C1NC(=N[C@H](CO)c2ccccc2)S/C1=C\c1ccc2ncccc2c1	3.71 µM	24.6 µM	5.74 µM	24.7 µM	2.66 µM	7.67 µM	3.3 µM	> 21.3 µM	4.8 µM	16.5 µM	3.82 µM	> 25 µM	3.73 µM	> 25 µM	4.57 µM	> 25 µM	3.49 µM	> 13.8 µM	1.95 µM	20 µM
COC(=O)C1(C)CCCC2(C)c3cc(OC)ccc3C(=O)C(Br)C12 (stereo not given)	–	> 10 µM	–	> 10 µM	–	> 10 µM	–	> 10 µM	–	> 10 µM	–	> 10 µM	–	> 10 µM	–	> 10 µM	–	> 10 µM	–	> 10 µM
CC12CC(=O)C3C(CCC4=CC(=O)CCC43C)C1CC=C2CC(=O)O (stereo not given)	–	> 100 µM	–	> 100 µM	–	> 100 µM	–	> 100 µM	–	> 100 µM	–	> 100 µM	–	> 100 µM	–	> 100 µM	–	> 100 µM	–	> 100 µM
C[C@H](c1ccccc1)N(CCC(=O)O)C(=O)CCN(C(=O)CCN(C(=O)CCN[C@H](C)c1ccccc1)[C@H](C)c1ccccc1)[C@H](C)c1ccccc1	> 100 µM	> 100 µM	> 100 µM	> 100 µM	> 100 µM	> 100 µM	> 100 µM	> 100 µM	> 100 µM	> 100 µM	> 100 µM	> 100 µM	> 100 µM	> 100 µM	> 100 µM	> 100 µM	> 100 µM	> 100 µM	> 100 µM	> 100 µM
COc1ccc(/C=C2\CCC(Cc3ccccc3)(CN(C)C)C2=O)cc1 (stereo not given)	–	> 100 µM	–	> 76.9 µM	–	> 100 µM	–	> 100 µM	–	> 96.3 µM	–	> 100 µM	–	> 100 µM	–	> 100 µM	–	> 100 µM	–	> 100 µM
COc1cc(Cn2c(SCC(=O)Nc3ccc(Cl)cc3)nc3ccccc3c2=O)cc(OC)c1OC	10.4 µM	59.1 µM	6.29 µM	37.1 µM	2.29 µM	6.5 µM	18.1 µM	> 100 µM	4 µM	26.2 µM	6.61 µM	24.8 µM	6.8 µM	26 µM	8.97 µM	55.1 µM	3.95 µM	40.3 µM	2.63 µM	7.67 µM
O=C1/C(=C/c2ccccc2[N+](=O)[O-])COc2ccc(O)c(O)c21	1.38 µM	4.94 µM	0.864 µM	2.4 µM	1.21 µM	2.99 µM	0.807 µM	2.36 µM	3.97 µM	25.2 µM	1.18 µM	4.58 µM	2.45 µM	9.53 µM	0.409 µM	3.02 µM	2.05 µM	12.6 µM	1.22 µM	3.32 µM
N#Cc1ccc(/C=C/C(=O)c2ccccc2)cc1	14.5 µM and 8.35 µM	28.9 µM and 22.4 µM	13.5 µM and 14 µM	26.6 µM and 27.5 µM	13.9 µM and 15.9 µM	26.9 µM and 29.4 µM	13.4 µM and 12.3 µM	26.2 µM and 24.9 µM	27.2 µM and 15.3 µM	> 68.8 µM and 31 µM	13.3 µM and 9.61 µM	26.7 µM and 25.4 µM	14.4 µM and 12.5 µM	27.4 µM and 25.1 µM	2.44 µM and 1.71 µM	9.25 µM and 5.38 µM	18.3 µM and 2.13 µM	50.9 µM and 5.64 µM	14.2 µM and 12.1 µM	28.2 µM and 26 µM
Oc1cccc(-c2nc(-c3ccccc3)[nH]c2-c2ccncc2)c1	11.6 µM	> 25 µM	1.59 µM	> 25 µM	17.6 µM	> 25 µM	16.3 µM	> 25 µM	> 19 µM	> 25 µM	24.3 µM	> 25 µM	> 25 µM	> 25 µM	12.8 µM	> 25 µM	10.2 µM	> 25 µM	16.5 µM	> 25 µM
Cc1ccc(S(=O)(=O)CC2(Br)CCc3ccccc3C2=O)cc1 (stereo not given)	–	> 100 µM	–	67.9 µM	–	> 100 µM	–	> 100 µM	–	> 100 µM	–	36.5 µM	–	> 100 µM	–	85.9 µM	–	> 100 µM	–	85.7 µM
